5 compounds from US6291485A, “4,5-dihydro-[1H]-benz[g]indazole-3-carboxylic acid derivatives” (Teikoku Hormone Mfg. Co., Ltd., priority 1997, dated 2001) can be followed below.

One experiment addresses T1, ETB receptor (Homo sapiens, UniProt P24530).
T1 construct: a crude receptor membrane fraction from the human placenta; from tissue; host or cells: human placenta, crude membrane fraction
T1 sequence (P24530 27-442): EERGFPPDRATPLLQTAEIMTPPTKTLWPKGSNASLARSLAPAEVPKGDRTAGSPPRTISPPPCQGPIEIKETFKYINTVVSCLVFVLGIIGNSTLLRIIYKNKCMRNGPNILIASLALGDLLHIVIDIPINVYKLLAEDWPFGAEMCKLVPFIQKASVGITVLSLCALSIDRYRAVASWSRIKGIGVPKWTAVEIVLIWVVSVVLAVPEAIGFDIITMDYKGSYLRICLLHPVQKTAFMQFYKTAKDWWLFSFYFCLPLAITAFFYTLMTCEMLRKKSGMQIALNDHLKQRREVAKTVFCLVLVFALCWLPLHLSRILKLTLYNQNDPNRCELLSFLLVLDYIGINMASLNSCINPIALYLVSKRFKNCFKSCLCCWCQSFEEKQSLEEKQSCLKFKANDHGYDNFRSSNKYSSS
Kind of experiment: binding of 125I-ET-1 to crude receptor membrane fraction from the human placenta (ETB). The conditions noted are these: human placenta membranes, 125I-ET-1, 25° C., 120 minutes, pH 7.0. The procedure:
(§1) (1) Measurement of Antagonism to Endothelin Receptors
(§2) Among the endothelin (ET) receptor subtypes, the binding of ET to the ETA and ETB subtypes was measured by using a crude receptor membrane fraction from the porcine thoracic aorta and a crude receptor membrane fraction from the human placenta, respectively. The tissue (about 40 g) as washed, minced with scissors, and homogenized in 4 volumes of solution A [20 mM HEPES (N-2-hydroxyethylpiperazine-N'-2-ethanesulfonic acid), 3 mM EGTA (ethylene glycol bis(β-aminoethyl ether)-N,N,N',N'-tetraacetic acid), 5 mM EDTA (ethylenediaminetetraacetic acid), 2 μg/ml aprotinin, 3 μg/ml leupeptin, 3 μg/ml pepstatin A, 0.25 mg/ml bacitracin, 0.25 M sucrose] by means of an Ultra-turrax. The resulting homogenate was centrifuged at 8,000 g for 20 minutes, and the supernatant was further centrifuged at 80,000 g for 60 minutes. The precipitate was suspended in solution A and used as a crude receptor membrane fraction, which was divided into portions and stored in a frozen state at -70° C. As a radioligand, 325 Bq of ^125 I-ET-1 (81.4 TBq/mmol; manufactured by DuPont-New England Nuclear, Boston, Mss., U.S.A) was placed in a test tube. Then, the crude receptor membrane fraction (20 μg as protein) and a test compound were added thereto. Nonspecific binding was measured by the addition of 125 nM ET-1. The reaction was carried out in solution B [30 mM HEPES, 0.15 M NaCl, 5 mM MgCl2, 0.5 mg/ml bacitracin, 1 mg/ml bovine serum albumin, pH 7.0) at 25° C. for 120 minutes. In order to separate the free radioactive ligand from the membrane-bound one, the reaction mixture was quickly filtered through a glass filter treated with 0.3% polyethylene-imine (GF/C; manufactured by Whatman Inc., U.S.A.) and washed twice with ice-cold solution B. Thereafter, the radioactivity remaining on the filter was measured with a gamma counter.

The next experiment deals with T2, ETA receptor (Sus scrofa, UniProt Q29010).
T2 construct: crude receptor membrane fraction from the porcine thoracic aorta; from tissue; host or cells: porcine thoracic aorta, crude membrane fraction
T2 sequence (Q29010 21-427): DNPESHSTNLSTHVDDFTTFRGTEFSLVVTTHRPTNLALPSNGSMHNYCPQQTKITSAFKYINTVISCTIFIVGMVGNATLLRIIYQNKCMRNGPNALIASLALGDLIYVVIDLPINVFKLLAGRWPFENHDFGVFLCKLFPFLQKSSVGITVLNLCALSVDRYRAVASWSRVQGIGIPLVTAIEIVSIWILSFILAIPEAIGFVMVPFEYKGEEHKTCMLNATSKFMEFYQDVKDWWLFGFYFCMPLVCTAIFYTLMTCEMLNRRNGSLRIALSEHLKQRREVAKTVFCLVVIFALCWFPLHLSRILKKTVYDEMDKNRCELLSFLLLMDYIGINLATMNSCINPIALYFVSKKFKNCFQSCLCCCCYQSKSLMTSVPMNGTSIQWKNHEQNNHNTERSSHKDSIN
As to the kind of experiment: binding of 125I-ET-1 to crude receptor membrane fraction from the porcine thoracic aorta (ETA). Particulars: porcine thoracic aorta membranes, 125I-ET-1, 25° C., 120 minutes, pH 7.0. How it is done:
as §1, §2

Another experiment deals with endothelin receptors. Kind of experiment: antagonism to endothelin receptors (statement in words, no subtype). Type of experiment: binding. How it is done: as §1
as §2, with “The precipitate was suspended in solution A and used as a crude receptor membrane fraction, which was divided into portions and stored in a frozen state at -70° C. As a radioligand, 325 Bq of ^125 I-ET-1 (81.4 TBq/mmol; manufactured by DuPont-New England Nuclear, Boston, Mss., U.S.A) was placed in a test tube. Then, the crude receptor membrane fraction (20 μg as protein) and a test compound were added thereto.” left out, “The reaction was carried out in solution B [30 mM HEPES, 0.15 M NaCl, 5 mM MgCl2, 0.5 mg/ml bacitracin, 1 mg/ml bovine serum albumin, pH 7.0) at 25° C. for 120 minutes.” left out

The target of the next experiment is T3, phosphodiesterase III (Cavia porcellus, UniProt H0VIU9).
T3 construct: hearts excised from male Hartley strain guinea pigs (400-600 g); from tissue; host or cells: guinea pig heart, 40,000 g supernatant, DEAE-cellulose fraction
T3 sequence (H0VIU9 1-1132): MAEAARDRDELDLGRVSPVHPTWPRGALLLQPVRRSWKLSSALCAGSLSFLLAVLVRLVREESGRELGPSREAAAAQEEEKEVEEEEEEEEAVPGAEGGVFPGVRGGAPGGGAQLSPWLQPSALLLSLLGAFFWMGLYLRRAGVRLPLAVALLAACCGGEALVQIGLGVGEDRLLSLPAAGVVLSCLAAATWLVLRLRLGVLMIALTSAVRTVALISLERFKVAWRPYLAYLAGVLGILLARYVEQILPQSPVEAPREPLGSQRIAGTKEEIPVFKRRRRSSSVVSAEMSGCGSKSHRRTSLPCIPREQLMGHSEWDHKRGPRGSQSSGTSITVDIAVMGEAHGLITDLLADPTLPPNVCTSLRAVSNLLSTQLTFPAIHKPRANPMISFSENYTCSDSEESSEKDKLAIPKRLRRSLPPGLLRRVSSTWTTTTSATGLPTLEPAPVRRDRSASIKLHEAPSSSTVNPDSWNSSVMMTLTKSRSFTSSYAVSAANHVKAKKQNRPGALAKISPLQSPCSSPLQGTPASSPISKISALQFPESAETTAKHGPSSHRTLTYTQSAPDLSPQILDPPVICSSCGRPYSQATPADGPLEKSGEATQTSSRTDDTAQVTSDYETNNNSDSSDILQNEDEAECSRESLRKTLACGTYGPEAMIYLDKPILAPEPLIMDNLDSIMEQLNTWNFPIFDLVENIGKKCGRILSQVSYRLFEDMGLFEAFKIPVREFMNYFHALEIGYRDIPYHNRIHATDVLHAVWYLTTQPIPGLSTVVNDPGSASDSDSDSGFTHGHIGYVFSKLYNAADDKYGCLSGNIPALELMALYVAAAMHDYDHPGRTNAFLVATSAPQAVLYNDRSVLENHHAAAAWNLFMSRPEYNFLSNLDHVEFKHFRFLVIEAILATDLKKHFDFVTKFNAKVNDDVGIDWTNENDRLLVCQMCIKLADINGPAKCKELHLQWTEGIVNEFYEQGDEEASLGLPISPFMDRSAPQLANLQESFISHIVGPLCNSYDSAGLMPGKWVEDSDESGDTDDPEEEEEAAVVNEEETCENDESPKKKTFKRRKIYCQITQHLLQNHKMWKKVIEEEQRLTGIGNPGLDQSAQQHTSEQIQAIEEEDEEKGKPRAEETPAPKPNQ
As to the kind of experiment: inhibitory effect on phosphodiesterase III ([3H] cAMP conversion, enzyme fraction from guinea pig hearts). Type of experiment: biochemical. The conditions noted are these: for IC50: guinea pig heart enzyme, 0.1 μM [3H] cAMP, 30° C., 10 minutes, pH=8.0; for inhibitory effect on phosphodiesterase III: statement in words. How it is done: Phosphodiesterase III was prepared according to the method of Frodsham et al. (Eur. J. Pharmacol., Vol. 211, pp. 383-391, 1992).
Specifically, hearts excised from male Hartley strain guinea pigs (400-600 g) were placed in 8 volumes of solution C [10 mM trishydroxymethyl)aminomethane-acetic acid buffer (pH=7.5), 2 mM magnesium chloride, 1 mM dithiothreitol, 2,000 units/ml aprotinin, 50 μM phenylmethylsulfonyl fluoride], minced with scissors, and homogenized three times for 10 seconds by means of a Polytron. The resulting homogenate was centrifuged at 40,000 g for 30 minutes, and the supernatant was applied onto a DEAE-cellulose column and eluted with a linear concentration gradient ranging from 0.2 M to 0.6 M sodium acetate (pH 6.5). The fractions eluted at 0.4-0.5 M were pooled and used as a phosphodiesterase III enzyme fraction.
Specifically, a test compound and the phosphodiesterase III enzyme fraction were added to 0.4 ml of a reaction solution [40 mM tris(hydroxymethyl)aminomethane-hydrochloric acid buffer (pH=8.0), 5 mM magnesium chloride, 1 mM dithiothreitol, 0.1 μM [^3 H] cAMP]. This mixture was reacted at 30° C. for 10 minutes. After completion of the reaction, 5'-nuclease was added thereto so as to convert [^3 H] 5'-AMP, which was the reaction product with phosphodiesterase III, to [^3 H] adenosine. Then, the [^3 H] cAMP and [^3 H] adenosine present in the reaction mixture were separated with the aid of an anion exchanger.

As to `COc1cccc(Cn2nc(C(=O)O)c3c2-c2ccc(OCc4cncnc4)cc2CC3)c1` [Example 2, 4,5-dihydro-1-(3-methoxybenzyl)-7-(5-pyrimidinylmethoxy)-[1H]-benz[g]indazole-3-carboxylic acid], the IC50 on ETB receptor stood at 140 nM; on ETA receptor, 31 nM.
In the same order, the values of `CCOc1cccc(Cn2nc(C(=O)O)c3c2-c2ccc(OCc4cncnc4)cc2CC3)c1` [Example 14] are 115 nM and 16.8 nM.
Regarding `CCOc1cccc(C(CC)n2nc(C(=O)O)c3c2-c2ccc(OCc4cncnc4)cc2CC3)c1` (stereo not drawn) [Example 34, 4,5-dihydro-1-(3-ethoxy-α-ethylbenzyl)-7-(5-pyrimidinylmethoxy)-[1H]-benz[g]indazole-3-carboxylic acid], the “antagonism to endothelin receptors” value in the experiment with endothelin receptors is “excellent antagonism to endothelin receptors”. Moreover, the IC50 on ETB receptor is 153 nM; on phosphodiesterase III it was 75 nM; on ETA receptor, 4.5 nM. In addition, at phosphodiesterase III, the “inhibitory effect on phosphodiesterase III” value is given as “inhibitory effect on phosphodiesterase III”.
In the case of `CCOCC(c1cccc(OCC)c1)n1nc(C(=O)O)c2c1-c1ccc(OCc3cncnc3)cc1CC2` (stereo not drawn) [Example 41, 4,5-dihydro-1-(3-ethoxy-α-ethoxymethyl-benzyl)-7-(5-pyrimidinylmethoxy)-[1H]-benz[g]indazole-3-carboxylic acid], the IC50 on ETB receptor was determined as 92 nM; on ETA receptor, 7.4 nM.
For the compound `CCOc1cccc(C(c2ccccn2)n2nc(C(=O)O)c3c2-c2ccc(OCc4cncnc4)cc2CC3)c1` (stereo not shown) [Example 70], the “antagonism to endothelin receptors” value in the experiment on endothelin receptors is reported as “excellent antagonism to endothelin receptors”. The figures for the IC50 at ETB receptor, against phosphodiesterase III and at ETA receptor were 11.3 nM, 580 nM and 2.5 nM, respectively. Also, the “inhibitory effect on phosphodiesterase III” value on phosphodiesterase III is given as “inhibitory effect on phosphodiesterase III”.
